One assay deals with T1, recombinant human 5-HT5A receptor (Homo sapiens, UniProt P47898).
T1 construct: expressed in transfected cells; host or cells: HEK-EBNA (Human Embryonic Kidney-EBNA) cells, transient cDNA expression, membranes
T1 sequence (P47898 whole entry): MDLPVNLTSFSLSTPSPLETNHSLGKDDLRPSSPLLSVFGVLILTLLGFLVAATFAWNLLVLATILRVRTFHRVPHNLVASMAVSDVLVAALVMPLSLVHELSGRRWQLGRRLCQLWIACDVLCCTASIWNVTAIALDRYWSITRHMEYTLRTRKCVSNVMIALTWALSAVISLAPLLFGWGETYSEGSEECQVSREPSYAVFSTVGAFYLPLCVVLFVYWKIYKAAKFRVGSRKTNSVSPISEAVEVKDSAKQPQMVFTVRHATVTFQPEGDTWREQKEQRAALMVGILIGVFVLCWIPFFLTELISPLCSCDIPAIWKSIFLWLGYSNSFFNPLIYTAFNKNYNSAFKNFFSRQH
Briefly: [3H]LSD radioligand binding assay.
Settings: not given
As for the experimental part:
A [^3H]LSD radioligand binding assay was used to determine the affinity of the compounds for the recombinant human 5-HT5A receptor, in membranes from transiently (cDNA) expressed 5-HT5A receptors in Human Embryonic Kidney-EBNA (HEK-EBNA) cells. Assay buffer consisted of Tris (50 mM) buffer containing 1 mM EGTA, 10 mM MgCl2 (pH 7.4) and 10 μM pargyline. The binding assay was carried out in 96-well-plates in the presence of [^3H]LSD (approximately 1 nM), approximately 2 μg/well of membrane protein, and 0.5 mg of Ysi-poly-1-lysine SPA beads in a final volume of 200 μl of buffer. Non-specific binding was defined using methiothepin 2 μM. Compounds were tested at 10 concentrations. All assays were conducted in duplicate and repeated at least two times. Assay plates were incubated for 120 min at room temperature before centrifugation. Bound ligand was determined using a Packard Topcount scintillation counter. IC50 values were calculated using a non-linear curve fitting program and Ki values calculated using the Cheng-Prussoff equation.
`COc1ccc(OC(=O)Nc2ccc3nc(N[C@@H]4CCc5ccccc54)ccc3c2)cc1` [Example 47, [2-((R)-Indan-1-ylamino)-quinolin-6-yl]-carbamic acid 4-methoxy-phenyl ester]: the Ki was 20 nM.

The assay is the same for the next values; noted with them: [3H]LSD (approximately 1 nM), membranes from HEK-EBNA cells transiently expressing 5-HT5A receptors; Ki calculated from IC50 using the Cheng-Prussoff equation; read-out: Ki/nM 5-HT5A.
Consider `c1ccc2c(c1)CC[C@H]2Nc1ccc2cc(NCc3ncc[nH]3)ccc2n1` [Example 12, N^6-(1H-Imidazol-2-ylmethyl)-N^2—(R)-indan-1-yl-quinoline-2,6-diamine], for which the Ki is 16.6 nM.
For `COc1cccc2c1C(Nc1ccc3cc(NC(=O)Cn4ccnc4)ccc3n1)CC2` (racemic) [Example 100, rac-2-Imidazol-1-yl-N-[2-(7-methoxy-indan-1-ylamino)-quinolin-6-yl]-acetamide], the Ki was 21.2 nM.
In the case of `O=C(Nc1ccnc(Cl)c1)Nc1ccc2nc(N[C@@H]3CCc4ccccc43)ccc2c1` [Example 33, 1-(2-Chloro-pyridin-4-yl)-3-[2-((R)-indan-1-ylamino)-quinolin-6-yl]-urea], the Ki was 18.2 nM.
`FC(F)(F)c1cccc(Nc2ccc3nc(N[C@@H]4CCc5ccccc54)ccc3c2)n1` [Example 80, N^2—(R)-Indan-1-yl-N^6-(6-trifluoromethyl-pyridin-2-yl)-quinoline-2,6-diamine]: the Ki is 24.1 nM.
Turning to `Cc1cccc(Nc2ccc3nc(NC4CCc5cc(F)ccc54)ccc3c2)n1` (racemic) [Example 105, rac-N^2-(5-Fluoro-indan-1-yl)-N^6-(6-methyl-pyridin-2-yl)-quinoline-2,6-diamine], the Ki was 6.8 nM.
On the same count and under the same terms, in the case of `COc1cccc(NC(=O)Nc2ccc3nc(N[C@@H]4CCc5ccccc54)ccc3c2)c1` [Example 22, 1-[2-((R)-Indan-1-ylamino)-quinolin-6-yl]-3-(3-methoxy-phenyl)-urea] it was 21.9 nM; in that of `c1ccc2c(c1)CC[C@H]2Nc1ccc2cc(NCc3ccncc3)ccc2n1` [Example 15, N^2—(R)-Indan-1-yl-N^6-pyridin-4-ylmethyl-quinoline-2,6-diamine], 33.7 nM; in that of `COc1cccc2c1C(Nc1ccc3cc(Nc4cccc(C)n4)ccc3n1)CC2` (racemic) [Example 94, rac-N^2-(7-Methoxy-indan-1-yl)-N^6-(6-methyl-pyridin-2-yl)-quinoline-2,6-diamine], 3.4 nM.
On the same count and under the same terms, the result for `c1ccc2c(c1)CC[C@H]2Nc1ccc2cc(NCc3cc[nH]n3)ccc2n1` [Example 18, N^2—(R)-Indan-1-yl-N^6-(1-H-pyrazol-3-ylmethyl)-quinoline-2,6-diamine] reads 9 nM.
On to `Fc1ccc(CNCc2ccc3nc(N[C@@H]4CCc5ccccc54)ccc3c2)cc1` [Example 64, {6-[(4-Fluoro-benzylamino)-methyl]-quinolin-2-yl}-(R)-indan-1-yl-amine], for which the Ki is 348 nM.
The same measure, in the same setting: the result for `O=C(Nc1ccc2nc(N[C@@H]3CCc4ccccc43)ccc2c1)c1ccc(F)cc1` [Example 50, 4-Fluoro-N-[2-((R)-indan-1-ylamino)-quinolin-6-yl]-benzamide] reads 72.5 nM.
As for `COc1cccc2c1C(Nc1ccc3cc(Nc4cccc(C)n4)ccc3n1)CO2` (racemic) [Example 112, rac-N^2-(4-Methoxy-2,3-dihydro-benzofuran-3-yl)-N^6-(6-methyl-pyridin-2-yl)-quinoline-2,6-diamine], the Ki is 8 nM.
On the same count and under the same terms, in the case of `c1ccc2c(c1)CC[C@H]2Nc1ccc2cc(NCc3cccc4[nH]ccc34)ccc2n1` [Example 11, N^2—(R)-Indan-1-yl-N^6-(1-H-indol-4-ylmethyl)-quinoline-2,6-diamine] it was 9.4 nM; in that of `O=C(Nc1ccccc1)Nc1ccc2nc(N[C@@H]3CCc4ccccc43)ccc2c1` [Example 16, 1-[2-((R)-Indan-1-ylamino)-quinolin-6-yl]-3-phenyl-urea], 4.9 nM; in that of `C[C@@H](NC(=O)Nc1ccc2nc(N[C@@H]3CCc4ccccc43)ccc2c1)c1ccccc1` [Example 27, 1-[2-((R)-Indan-1-ylamino)-quinolin-6-yl]-3-((R)-1-phenyl-ethyl)-urea], 9.8 nM.
The same measure, in the same setting: the result for `Cn1nccc1NC(=O)Nc1ccc2nc(N[C@@H]3CCc4ccccc43)ccc2c1` [Example 58, 1-[2-((R)-Indan-1-ylamino)-quinolin-6-yl]-3-(2-methyl-2H-pyrazol-3-yl)-urea] reads 20.3 nM; that for `c1ccc2c(c1)CC[C@H]2Nc1ccc2cc(NCCCn3ccnc3)ccc2n1` [Example 9, N^6-(3-Imidazol-1-yl-propyl)-N^2—(R)-indan-1-yl-quinoline-2,6-diamine], 176 nM; that for `O=C(NC(=S)Nc1ccc2nc(N[C@@H]3CCc4ccccc43)ccc2c1)c1ccccc1` [Example 63, 1-Benzoyl-3-[2-((R)-indan-1-ylamino)-quinolin-6-yl]-thiourea], 390 nM.
Turning to `c1cncc(CNc2ccc3nc(N[C@@H]4CCc5ccccc54)ccc3c2)c1` [Example 4, N^2—(R)-Indan-1-yl-N^6-pyridin-3-ylmethyl-quinoline-2,6-diamine], the Ki is 9.8 nM.
Take `Fc1ccc2c(c1)CCC2Nc1ccc2cc(Nc3cccc(C(F)(F)F)n3)ccc2n1` (racemic) [Example 102, rac-N^2-(5-Fluoro-indan-1-yl)-N^6-(6-trifluoromethyl-pyridin-2-yl)-quinoline-2,6-diamine]: the Ki is 19.1 nM.
In the case of `COc1ccccc1NC(=O)Nc1ccc2nc(N[C@@H]3CCc4ccccc43)ccc2c1` [Example 23, 1-[2-((R)-Indan-1-ylamino)-quinolin-6-yl]-3-(2-methoxy-phenyl)-urea], the Ki is 25.6 nM.
As to `COc1ccc(CNC(=O)Nc2ccc3nc(N[C@@H]4CCc5ccccc54)ccc3c2)cc1` [Example 29, 1-[2-((R)-Indan-1-ylamino)-quinolin-6-yl]-3-(4-methoxy-benzyl)-urea], the Ki was 16.5 nM.
Take `c1ccc2c(c1)CC[C@H]2Nc1ccc2cc(NCc3nccs3)ccc2n1` [Example 13, N^2—(R)-Indan-1-yl-N^6-thiazol-2-ylmethyl-quinoline-2,6-diamine]: the Ki is 7.6 nM.
As to `O=C(Nc1ccc2nc(N[C@@H]3CCc4ccccc43)ccc2c1)Nc1ccccc1F` [Example 25, 1-(2-Fluoro-phenyl)-3-[2-((R)-indan-1-ylamino)-quinolin-6-yl]-urea], the Ki is 4.2 nM.
Regarding `C[C@H](NC(=O)Nc1ccc2nc(N[C@@H]3CCc4ccccc43)ccc2c1)c1ccccc1` [Example 28, 1-[2-((R)-Indan-1-ylamino)-quinolin-6-yl]-3-((S)-1-phenyl-ethyl)-urea], the Ki is 36.7 nM.
For the molecule `c1ccc2c(c1)CC[C@H]2Nc1ccc2cc(-n3ccnc3)ccc2n1` [Example 61, (6-Imidazol-1-yl-quinolin-2-yl)-(R)-indan-1-yl-amine], the Ki was 422 nM.
For the molecule `COc1ccc(NC(=O)Nc2ccc3nc(N[C@@H]4CCc5ccccc54)ccc3c2)cc1` [Example 21, 1-[2-((R)-Indan-1-ylamino)-quinolin-6-yl]-3-(4-methoxy-phenyl)-urea], the Ki is 6.3 nM.
On the same count and under the same terms, the result for `CN(c1ccc2nc(N[C@@H]3CCc4ccccc43)ccc2c1)c1ccccn1` [Example 85, N^2—(R)-Indan-1-yl-N^6-methyl-N^6-pyridin-2-yl-quinoline-2,6-diamine] reads 225 nM.
On the same count and under the same terms, in the case of `CN(c1ccc(Cl)cc1)S(=O)(=O)Nc1ccc2nc(N[C@@H]3CCc4ccccc43)ccc2c1` [Example 40, N-(4-chlorophenyl)-N′-{2-[(1R)-2,3-dihydro-1H-inden-1-ylamino]quinolin-6-yl}-N-methylsulfamide] it was 29.6 nM; in that of `Cn1cncc1CNC(=O)Nc1ccc2nc(N[C@@H]3CCc4ccccc43)ccc2c1` [Example 45, 1-[2-((R)-Indan-1-ylamino)-quinolin-6-yl]-3-(3-methyl-3H-imidazol-4-ylmethyl)-urea], 10.6 nM; in that of `COc1cccc(COc2ccc3nc(N[C@@H]4CCc5ccccc54)ccc3c2)c1` [Example 2, (R)-Indan-1-yl-[6-(3-methoxy-benzyloxy)-quinolin-2-yl]-amine], 92.4 nM.
The same measure, in the same setting: in the case of `CN(c1ccc(F)cc1)S(=O)(=O)Nc1ccc2nc(N[C@@H]3CCc4ccccc43)ccc2c1` [Example 41, N′-{2-[(1R)-2,3-dihydro-1H-inden-1-ylamino]quinolin-6-yl}-N-(4-fluorophenyl)-N-methylsulfamide] it was 25.8 nM; in that of `COc1cccc2c1C(Nc1ccc3cc(NC(=O)Cc4ccncc4)ccc3n1)CC2` (racemic) [Example 115, rac-N-[2-(7-Methoxy-indan-1-ylamino)-quinolin-6-yl]-2-pyridin-4-yl-acetamide], 15 nM.
For `O=C(NCc1ccc2nc(N[C@@H]3CCc4ccccc43)ccc2c1)c1ccc(F)cc1` [Example 54, 4-Fluoro-N-[2-((R)-indan-1-ylamino)-quinolin-6-ylmethyl]-benzamide], the Ki was 141 nM.
On the same count and under the same terms, the result for `Cc1noc(C)c1NC(=O)Nc1ccc2nc(N[C@@H]3CCc4ccccc43)ccc2c1` [Example 42, 1-(3,5-Dimethyl-isoxazol-4-yl)-3-[2-((R)-indan-1-ylamino)-quinolin-6-yl]-urea] reads 25.8 nM.
On the same count and under the same terms, the result for `O=C(Nc1ccc(Cl)nc1)Nc1ccc2nc(N[C@@H]3CCc4ccccc43)ccc2c1` [Example 31, 1-(6-Chloro-pyridin-3-yl)-3-[2-((R)-indan-1-ylamino)-quinolin-6-yl]-urea] reads 16.4 nM; that for `Cc1nc[nH]c1CNc1ccc2nc(N[C@@H]3CCc4ccccc43)ccc2c1` [Example 17, N^2—(R)-Indan-1-yl-N^6-(5-methyl-3-H-imidazol-4-ylmethyl)-quinoline-2,6-diamine], 7.6 nM.
